Values quoted from earlier work in US11167002B2, “Pharmaceutical composition for the treatment of malignant neoplasms including sarcoma, cancers of liver, lung, bladder, blood and cervical, treatment of infectious diseases and type 2 diabetes” (priority 2019, dated 2021).

Legend:
[1] = tested on: Gram-negative and Gram-positive bacteria, including multidrug-resistant enterotoxigenic strains of Escherichia coli; conditions: allicin in pure form
[2] = tested on: Entamoeba histolytica and Giardia lamblia; conditions: allicin in pure form
Candida albicans = conditions: allicin in pure form
[3] = allicin in pure form

## C=CCS[S+]([O-])CC=C (stereo not shown) [Allicin]
[1]
  antibacterial activity: antibacterial activity
[2]
  antiparasitic activity: antiparasitic activity
Candida albicans
  antifungal activity: antifungal activity
[3]
  antiviral activity: antiviral activity
